Experimental data reported in patent US7022719B2, “Preventing and reversing the formation of advance glycosylation endproducts” (Alteon, Inc., priority 1995, dated 2006).
Where “and” joins values, the source holds several entries; their conditions need not be identical. Equal values may be shown once. Where a name gives a salt, the structure may show the parent alone. Read-outs that look alike come from different tables or passages of the source.

Key:
[1] = tested on: AGE-BSA crosslinked to collagen; assay: Cross-link Breaking Assay (sandwich enzyme immunoassay); assay type: biochemical; conditions: for Breaking Anti-AGE: anti-AGE antibody; for Breaking Anti-BSA: anti-BSA antibody
Experimental: The present invention also involves a novel sandwich enzyme immunoassay used to ascertain the ability of test compounds to “break” or reverse already formed advanced glycosylation endproducts by detecting the breaking of AGE (Advanced glycosylation endproduct) moieties from AGE-crosslinked protein. This assay comprises: • a) incubation of AGE-modified bovine serum albumin (AGE BSA) on collagen-coated wells of microtiter plates for a period of 2–6 hours' at a temperature of 37° C.; • b) washing of the wells with PBS-Tween; • c) application of the test compounds to the washed wells of step b; • d) incubation of the test compounds applied to the washed wells for an additional 12–24 hours at a temperature of about 37° C.; and • e) detection of the AGE-breaking using an antibody raised against AGE-ribonuclease or cross-link breaking with an antibody against BSA.
In order to ascertain the ability of the compounds of the instant invention to “break” or reverse already formed advanced glycosylation endproducts, a novel sandwich enzyme immunoassay was developed which detects breaking of AGE (Advanced glycosylation endproduct) moieties from AGE-crosslinked protein. The assay utilizes collagen-coated 96 well microtiter plates that are obtained commercially. […] Following an incubation period of 16 hours (37° C.) cross-link-breaking is detected using an antibody raised against AGE-ribonuclease or with an antibody against BSA. […] Details of the assay are as follows:
Methods Preparation of Solutions and Buffers • 1. AGE-BSA stock solutions were prepared as follows. Sodium phosphate buffer (0.4 M) was prepared by dissolving 6 grams of monobasic sodium phosphate in 100 ml of distilled water, 7 grams of dibasic sodium phosphate (0.4 M) in 100 ml of distilled water and adjusting the pH of the dibasic solution to 7.4 with the monobasic solution. Sodium azide (0.02 grams) was added per 100 ml volume to inhibit bacterial growth. The BSA solution was prepared as follows: 400 mg of Type V BSA (bovine serum albumin) was added for each ml of sodium phosphate buffer (above). A 400 mM glucose solution was prepared by dissolving 7.2 grams of dextrose in 100 ml of sodium phosphate buffer (above). The BSA and glucose solutions were mixed 1:1 and incubated at 37° C. for 12 weeks. The pH of the incubation mixture was monitored weekly and adjusted to pH 7.4 if necessary. After 12 weeks, the AGE-BSA solution was dialyzed against PBS for 48 hours with four buffer changes, each at a 1:500 ratio of solution to dialysis buffer. Protein concentration was determined by the micro-Lowry method. The AGE-BSA stock solution was aliquoted and stored at −20° C. […] Working solutions for crosslinking and breaking studies were prepared as follows. Test compounds were dissolved in PBS and the pH was adjusted to pH 7.4 if necessary. AGE-BSA stock solution was diluted in PBS to measure maximum crosslinking and in the inhibitor solution for testing inhibitory activity of compounds. The concentration of AGE-BSA necessary to achieve the optimum sensitivity was determined by initial titration of each lot of AGE-BSA. • 3. Wash buffer (“PBS-Tween”) was, prepared as follows. PBS was prepared by dissolving the following salts in one liter of distilled water: NaCl, 8 grams; KC1, 0.2 gram, KH2PO4. […] Tween-20 was added to a final concentration of 0.05% (vol/vol). • 4. Substrates for detection of secondary antibody binding were prepared by diluting the HRP substrate buffer 1:10 in distilled water and mixing with ABTS chromogen 1:50 just prior to use. Assay Procedures • 1. Biocoat plates were blocked with 300 μl of “Superbloc”. Plates were blocked for one hour at room temperature and were washed with PBS-Tween three times with the Dynatech platewasher before addition of test reagents. • 2. Each experiment was set up in the following manner. The first three wells of the Biocoat plate were used for the reagent blank.

[2] = tested on: cross-linking of glycated bovine serum albumin (AGE-BSA) to rat tail tendon collagen; assay: Cross-linking Inhibition Assay; conditions: for IC50: inhibition of AGE-BSA cross-linking to collagen-coated plate
Experimental: The following method was used to evaluate the ability of the compounds of the present invention to inhibit the cross-linking of glycated bovine serum albumin (AGE-BSA) to the rat tail tendon collagen-coated 96-well plate.
The blocking solution was removed from the wells by, washing the plate twice with PBS-'Tween 20 solution (0.05% Tween 20) using a NUNq-multiprobe or Dynatech ELISA-plate washer. Cross-linking of AGE-BSA (1 to 10 mg per well depending on the batch of AGE-BSA) to rat tail tendon collagen coated plate was performed with and without the testing ‘compound dissolved in PBS buffer at pH 7.4 at the desired concentrations by the, addition of 50 μl each of the AGE-BSA diluted in PBS or in the solution of test compound at 37° C. for 4 hours. Unbrowned BSA in PBS buffer with or without testing compound were added to the separate wells as the blanks. The un-cross-linked AGE-BSA was then removed by washing the wells three times with PBS-Tween buffer. The amount of AGE-BSA cross-linked to the tail tendon collagen-coated plate was then quantitated using a polyclonal antibody raised against AGE-RNase. After a one-hour incubation period, AGE antibody was removed by washing 4 times with PBS-Tween.
The bound AGE antibody was then detected with the addition of horseradish peroxidase-conjugated secondary antibody—goat anti-rabbit immunoglobulin and incubation for 30 minutes. […] The reaction was allowed for an additional 15 minutes and the absorbance was read at 410 nm in a Dynatech plate reader.

[3] = detection with anti-BSA antibody, read-out: IC50 (mM) Anti-BSA
[4] = detection with anti-AGE antibody, read-out: IC50 (mM) Anti-AGE

Compound: C#CC[n+]1csc(C)c1.[Br-]
- melting point: 127 to 129 °C

Compound: Cc1sc[n+](CC(=O)c2cc(C(C)(C)C)c(O)c(C(C)(C)C)c2)c1C (as salt: bromide) [3-(2-(3′,5′-di-tert-butyl-4′-hydroxypheny].)-2-oxoethyl]-4,5-dimethyl-thiazolium bromide]
- melting point: 243 to 244 °C (dec.)

Compound: C#CC[n+]1csc(C)c1C.[Br-]
- melting point: 198 to 200 °C

Compound: Cc1c[n+](CC(=O)c2cc(C(C)(C)C)c(O)c(C(C)(C)C)c2)cs1 (as salt: bromide) [3-[2-(3′,5′-di-tert-butyl-4′-hydroxyphenyl)-2-oxoethyl)-5-methyl-thiazolium bromide]
- melting point: 210 to 211 °C

Compound: C=Cc1sc[n+](CC(=O)c2ccccc2)c1C.[Br-] [3-(2-phenyl-2-oxoethyl)-4-methyl-5-vinyl-thiazolium bromide]
- Breaking Anti-AGE ([1]; at 1 mM): 62%
- Breaking Anti-BSA ([1]; at 1 mM): 82%
- IC50 [1, 3]: 0.1 mM
- melting point: 176 to 177 °C

Compound: Nc1sc2ccccc2[n+]1N [2,3-diaminio-benzothiazolium mesitylenesulfonate]
- Breaking Anti-AGE ([1]; at 30 mM): 87%
- Breaking Anti-BSA ([1]; at 30 mM): 54%
- IC50 [2]: 74.9 µM

Compound: C=Cc1sc[n+](CC(=O)c2cc(C(C)(C)C)c(O)c(C(C)(C)C)c2)c1C (as salt: bromide) [3-(2-(3′,5′-tert-butyl-4′-hydroxyphenyl)-2-oxoethyl)-4-methyl-5-vinyl-thiazolium bromide]
- melting point: 208 to 209 °C

Compound: COC(=O)C[n+]1csc2ccccc21.[Br-] [3-(2-methoxy-2-oxoethyl)-benzothiazolium bromide]
- Breaking Anti-AGE ([1]; at 30 mM): 66%
- Breaking Anti-BSA ([1]; at 30 mM): 37%
- IC50 [1, 4]: 1.2 mM
- IC50 [1, 3]: 25.9 mM
- IC50 [2]: > 10000 µM

Compound: COC(=O)c1ccc(NC(=O)C[n+]2csc(CCO)c2C)cc1O (as salt: bromide) [3-(2-(4′-carbmethoxy-3′-hydroxyanilino)-2-oxoethyl]-4-methyl-5-(2′-hydroxyethyl)-thiazolium bromide]
- melting point: 222 to 223 °C

Compound: C#CC[n+]1cscc1C.[Br-]
- melting point: 213 to 215 °C

Compound: Cc1c(CCO)sc[n+]1Cc1ccccc1[N+](=O)[O-].[Br-] [3-(2′-nitrobenzyl)-4-methyl-5-(2′-hydroxyethyl)-thiazolium bromide]
- Breaking Anti-AGE ([1]; at 10 mM): 11%
- Breaking Anti-BSA ([1]; at 10 mM): 13%
- melting point: 215 to 216 °C

Compound: Cc1sc[n+](CC(=O)c2ccccc2)c1C.[Br-] [3-(2-phenyl-2-oxoethyl)-4,5-dimethylthiazolium bromide]
- Breaking Anti-AGE ([1]; at 30 mM): 56%/ND (30)
- Relative Cross-link Inhibition (at 10 mM) [2]: 37%

Compound: COC(=O)c1ccc(NC(=O)C[n+]2csc(CCO)c2C)cc1O [3-(2-(4′-carbmethoxy-3′-hydroxyanilino)-2-oxoethyl]-4-methyl-5-(2′-hydroxyethyl)-thiazolium bromide]
- Breaking Anti-AGE ([1]; at 10 mM): 24%
- Breaking Anti-BSA ([1]; at 10 mM): 18%
- IC50 [2]: 1760 µM

Compound: Cc1csc[n+]1CC(=O)c1ccccc1.[Br-] [3-(2-phenyl-2-oxoethyl)-4-methylthiazolium bromide]
- Breaking Anti-AGE ([1]; at 30 mM): 68%
- Breaking Anti-BSA ([1]; at 30 mM): 66%
- IC50 [1, 4]: 0.23 mM
- IC50 [1, 3]: 0.3 mM
- IC50 [2]: 5600 µM

Compound: CC(C)(C)C(=O)C[n+]1ccsc1.[Br-] [3-(2-tert-butyl-2-oxoethyl)-thiazolium bromide]
- Breaking Anti-AGE ([1]; at 10 mM): 28%
- Breaking Anti-BSA ([1]; at 10 mM): 37%
- melting point: 211 to 212 °C

Compound: C#CC[n+]1ccsc1.[Br-]
- melting point: 64 to 66 °C

Compound: Cc1c(CCOCc2c(Cl)cccc2Cl)sc[n+]1N.Cc1cc(C)c(S(=O)(=O)[O-])c(C)c1 [3-amino-4-methyl-5-(2(2′,6′-dichlorobenzyloxy)ethyl]-thiazolium mesitylenesulfonate]
- Breaking Anti-AGE ([1]; at 10 mM): 31%
- Breaking Anti-BSA ([1]; at 10 mM): 54%
- Relative Cross-link Inhibition ([2]; 3 mM): 26.5% (3 mm)

Compound: COc1cccc(C[n+]2csc(CCO)c2C)c1.[Cl-] [3-(3′-methoxybenzyl)-4-methyl-5-(2′-hydroxyethyl)-thiazolium chloride]
- Breaking Anti-AGE ([1]; at 10 mM): 4% and 14%
- Breaking Anti-BSA ([1]; at 10 mM): 19% and 25%
- melting point: 135 to 136 °C

Compound: Cc1csc[n+]1CC(N)=O.[Br-] [3-(2-amino-2-oxoethyl)-4-methyl-thiazolium bromide]
- Breaking Anti-AGE ([1]; at 30 mM): 89%
- Breaking Anti-BSA ([1]; at 30 mM): 44%
- IC50 [1, 4]: 4.7 mM
- IC50 [1, 3]: 38.6 mM
- IC50 [2]: 700 µM

Compound: CCCCN(CCCC)C(=O)C[n+]1csc(CCO)c1C.[Br-] [3-(2-Dibutylamino-2-oxoethyl]-4-methyl-5-(2′-hydroxyethyl)-thiazolium bromide]
- Breaking Anti-AGE ([1]; at 10 mM): 25%
- Breaking Anti-BSA ([1]; at 10 mM): 38%
- melting point: 78 to 80 °C
- Relative Cross-link Inhibition (at 10 mM) [2]: 0.8% (10 mm)

Compound: Cc1sc[n+](CC(N)=O)c1C.[Br-] [3-(2-amino-2-oxoethyl)-4,5-dimethyl-thiazolium bromide]
- Breaking Anti-AGE ([1]; at 30 mM): 61%
- Breaking Anti-BSA ([1]; at 30 mM): 16%
- IC50 [2]: 9900 µM

Compound: Cc1c(CCO)sc[n+]1CC(=O)c1ccccc1.[Br-] [3-(2-phenyl-2-oxoethyl)-4-methyl-5-(2-hydroxyethyl)-thiazolium bromide]
- Breaking Anti-AGE ([1]; at 30 mM): 67%
- Breaking Anti-BSA ([1]; at 30 mM): 13%
- IC50 [1, 4]: 14.3 mM
- IC50 [2]: > 10000 µM

Compound: Cc1c(CCO)sc[n+]1CC(=O)C(C)(C)C.[Br-]
- melting point: 186 to 187 °C

Compound: Cc1c[n+](CC(=O)c2cc(C(C)(C)C)c(O)c(C(C)(C)C)c2)cs1 [3-[2-(3′,5′-di-tert-butyl-4′-hydroxyphenyl)-2-oxoethyl)-5-methyl-thiazolium bromide]
- Breaking Anti-AGE ([1]; at 1 mM): 65%
- Breaking Anti-AGE ([1]; at 10 mM): 48%
- Breaking Anti-BSA ([1]; at 1 mM): 69%
- Breaking Anti-BSA ([1]; at 10 mM): 49%
- IC50 [1, 4]: 3 mM
- IC50 [2]: 780 µM

Compound: C#CC[n+]1csc(CCO)c1C.[Br-]
- melting point: 132 to 134 °C

Compound: Cc1c(CCO)sc[n+]1CC(=O)c1ccc2c(c1)OCCO2.[Br-] [3 (2-(1′,4′-benzodioxan-6-yl)-2-oxoethyl]-4-methyl-5-(2′-hydroxyethyl)-thiazolium bromide]
- Breaking Anti-AGE ([1]; at 3 mM): 11%
- Breaking Anti-BSA ([1]; at 3 mM): 21%
- Relative Cross-link Inhibition (at 10 mM) [2]: 13%

Compound: Cn1cc[n+](CC(=O)c2cc(C(C)(C)C)c(O)c(C(C)(C)C)c2)c1 [1-methyl-3-(2-(3′,5′-di-tert-butyl-4′-hydroxyphenyl)-2-oxoethyl]-imidazolium bromide]
- Breaking Anti-AGE ([1]; at 10 mM): 56%
- Breaking Anti-BSA ([1]; at 10 mM): 38%
- IC50 [2]: 4500 µM
